Earlier results in patent US20260199259A1, “CONTROLLED LIPID SELF-ASSEMBLY FOR SCALABLE MANUFACTURING OF NEXTGENERATION IMMUNE STIMULATING COMPLEXES” (MASSACHUSETTS INSTITUTE OF TECHNOLOGY, priority 2022, published 2026).

Tests used:
chick embryo eggs = conditions: measured by lethal dose in chick embryo eggs

Row | micelle size (aqueous solutions) | solubility (in PBS) | Substance | factor of toxicity reduction relative to LPS (chick embryo eggs)
1 | ~ 7 nm | up to 30 mg/mL | QS-21 | 
2 |  |  | 4′-monophosporyl lipid A [MPLA] | more than 1000
